Measurements published in publication PMC12566046, “Arylpiperazinyl-Benzocycloheptapyrrole-Carboxamides Endowed with Dual Anticancer and Antiviral Activities” (Molecules, 2025).
Like-named read-outs stand apart in the source and are kept apart here.

Key:
[1] = tested on: cell line (breast cancer); test: NCI-60 single-dose assay; assay type: cell-based; details: Homo sapiens, HS%/(T cell line), 10^−5 M, read-out: growth inhibition (GI%)
Procedure, shortened: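 Single-dose cytotoxicity test run in the NCI-60 panel of human cancer cell lines. Threshold inhibition criteria across a minimum number of lines decided progression to five-dose testing.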

[2] = tested on: CCRF-CEM (leukemia cell line); test: NCI-60 five-dose assay; assay type: cell-based, human; details: five doses (10^−4–10^−8 M), read-out: Growth inhibition 50 (GI50)
[3] = tested on: HL-60(TB) (leukemia cell line); test: NCI-60 five-dose assay; assay type: cell-based, human; details: five doses (10^−4–10^−8 M), read-out: Growth inhibition 50 (GI50)
[4] = tested on: K-562 (leukemia cell line); test: NCI-60 five-dose assay; assay type: cell-based, human; details: read-out: Growth inhibition 50 (GI50)
[5] = tested on: MOLT-4 (leukemia cell line); test: NCI-60 five-dose assay; assay type: cell-based, human; details: five doses (10^−4–10^−8 M), read-out: Growth inhibition 50 (GI50)
[6] = tested on: RPMI-8226 (leukemia cell line); test: NCI-60 five-dose assay; assay type: cell-based, human; details: five doses (10^−4–10^−8 M), read-out: Growth inhibition 50 (GI50)
SR (leukemia cell line) = test: NCI-60 five-dose assay; assay type: cell-based, human; details: five doses (10^−4–10^−8 M), read-out: Growth inhibition 50 (GI50)
[7] = tested on: COLO 205 (colon cancer cell line); test: NCI-60 five-dose assay; assay type: cell-based, human; details: five doses (10^−4–10^−8 M), read-out: Growth inhibition 50 (GI50)
[8] = tested on: HCC-2998 (colon cancer cell line); test: NCI-60 five-dose assay; assay type: cell-based, human; details: five doses (10^−4–10^−8 M), read-out: Growth inhibition 50 (GI50)
[9] = tested on: HCT-116 (colon cancer cell line); test: NCI-60 five-dose assay; assay type: cell-based, human; details: five doses (10^−4–10^−8 M), read-out: Growth inhibition 50 (GI50)
[10] = tested on: SW-620 (colon cancer cell line); test: NCI-60 five-dose assay; assay type: cell-based, human; details: SW-620, five doses (10^−4–10^−8 M), read-out: Growth inhibition 50 (GI50)
Colon Cancer panel = test: NCI-60 five-dose assay, panel-level GI50 (mean graph midpoint, range); assay type: cell-based, human; details: Colon Cancer panel average, read-out: GI50 mean graph midpoint (MG_MID)
Method: (§1) Due to these preliminary results, six compounds, 1, 5, 10, 11, 17, and 20, were selected for the five-dose screen NCI-programme against the same panel of tumour cell lines.
(§2) Next, a mean graph midpoint (MG_MD) was calculated for compounds 1, 5, 10, 11, 17, and 20 and reported as waterfall graphs GI50, TGI, and LC50 in the Supplementary Materials (Figures S69–S86). In Table 9, we reported the average GI50 for the nine-cancer panels, underlining both the activity and selectivity for compounds 1, 10, 11, and 20.

Leukemia panel = test: as above; assay type: cell-based, human; details: Leukemia panel average, read-out: GI50 mean graph midpoint (MG_MID)
Method: as §1, §2

Melanoma panel = test: as above; assay type: cell-based, human; details: Melanoma panel average, read-out: GI50 mean graph midpoint (MG_MID)
Method: as §1, §2

[11] = tested on: LOX IMVI (melanoma cell line); test: NCI-60 five-dose assay; details: for CC50: read-out: LC50 (molar concentration leading to 50% net cell death)
[12] = tested on: MALME-3M (melanoma cell line); test: NCI-60 five-dose assay; details: for GI50: read-out: Growth inhibition 50 (GI50); for CC50: read-out: LC50 (molar concentration leading to 50% net cell death)
M14 (melanoma cell line) = test: NCI-60 five-dose assay
[13] = tested on: MDA-MB-435 (melanoma cell line); test: NCI-60 five-dose assay
[14] = tested on: SK-MEL-2 (melanoma cell line); test: NCI-60 five-dose assay
[15] = tested on: SK-MEL-28 (melanoma cell line); test: NCI-60 five-dose assay
[16] = tested on: SK-MEL-5 (melanoma cell line); test: NCI-60 five-dose assay
[17] = tested on: UACC-257 (melanoma cell line); test: NCI-60 five-dose assay
[18] = tested on: UACC-62 (melanoma cell line); test: NCI-60 five-dose assay
[19] = tested on: MDA-MB-468 (breast cancer); test: NCI-60 five-dose assay; assay type: cell-based, human; details: five-dose screen
[20] = tested on: RXF 393 (renal cancer cells); test: NCI-60 five-dose assay; assay type: cell-based, human; details: five-dose screen
[21] = tested on: HOP-92 (non-small cell lung cancer); test: NCI-60 five-dose assay; assay type: cell-based, human; details: five-dose screen
From the text: (§3) We first evaluated the cytotoxic activity of tricyclic-pyrrole carboxamides 1–20 using the NCI-60 cell line panel, representing nine different human cancers: leukemia, melanoma, and cancers of the lung, colon, central nervous system (CNS), ovary, kidney, prostate, and breast (the one-dose graph for compounds 1–20 is reported in Supplementary Materials, Figures S43–S62). Compounds 1, 5, 10, 11, 17, and 20 satisfied pre-determined threshold inhibition criteria in a minimum number of cell lines; therefore, they were also tested in the full five-dose assay (Figures S63–S68 in the Supplementary Materials).
as §1

MCF-7 (breast cancer) = test: NCI-60 five-dose assay; assay type: cell-based, human; details: five-dose screen
From the text: as §3, §1

O=C(NCCCN1CCN(Cc2ccccc2)CC1)c1c(Cl)[nH]c2c1CCCc1ccccc1-2 [Compound 20, N-(3-(4-Benzylpiperazin-1-yl)propyl)-2-chloro-1,4,5,6-tetrahydrobenzo[6,7]cyclohepta[1,2-b]pyrrole-3-carboxamide]
inhibition at 10 µM [1]: 72.4% | GI50 ([2]; Homo sapiens): 10.7 µM | GI50 ([3]; Homo sapiens): 5.06 µM | GI50 ([4]; Homo sapiens, K562, five doses (10^−4–10^−8 M)): 2.97 µM | GI50 ([5]; Homo sapiens): 4.78 µM | GI50 ([6]; Homo sapiens): 3.69 µM | GI50 (SR (leukemia cell line); Homo sapiens): 0.53 µM | GI50 ([7]; Homo sapiens): 1.96 µM | GI50 ([8]; Homo sapiens): 1.77 µM | GI50 ([9]; Homo sapiens): 5.5 µM | GI50 ([10]; Homo sapiens): 3.59 µM | GI50 (Colon Cancer panel; Homo sapiens): 4.17 µM | GI50 (Leukemia panel; Homo sapiens): 3.39 µM | GI50 (Melanoma panel; Homo sapiens): 3.39 µM | TGI (molar concentration giving total growth inhibition) [11]: 15.85 µM | GI50 ([11]; Homo sapiens, read-out: Growth inhibition 50 (GI50)): 4.33 µM | CC50 ([11]; Homo sapiens): 40.7 µM | GI50 ([12]; Homo sapiens, Malme-3M): 2.02 µM | CC50 ([12]; Homo sapiens, Malme-3M): 7.76 µM | TGI (molar concentration giving total growth inhibition) ([12]; MALME-3M): 3.98 µM | GI50 (M14 (melanoma cell line); Homo sapiens, M14, read-out: Growth inhibition 50 (GI50)): 2.01 µM | CC50 (M14 (melanoma cell line); Homo sapiens, M14, read-out: LC50 (molar concentration leading to 50% net cell death)): 8.71 µM | TGI (molar concentration giving total growth inhibition) (M14 (melanoma cell line); M14): 4.17 µM | GI50 ([13]; Homo sapiens, MDA-MB-435, read-out: Growth inhibition 50 (GI50)): 4.9 µM | CC50 ([13]; Homo sapiens, MDA-MB-435, read-out: LC50 (molar concentration leading to 50% net cell death)): 49 µM | TGI (molar concentration giving total growth inhibition) ([13]; MDA-MB-435): 17.78 µM | GI50 ([14]; Homo sapiens, SK-MEL-2, read-out: Growth inhibition 50 (GI50)): 13.7 µM | CC50 ([14]; Homo sapiens, SK-MEL-2, read-out: LC50 (molar concentration leading to 50% net cell death)): 53.7 µM | TGI (molar concentration giving total growth inhibition) ([14]; SK-MEL-2): 26.91 µM | GI50 ([15]; Homo sapiens, SK-MEL-28, read-out: Growth inhibition 50 (GI50)): 2.11 µM | CC50 ([15]; Homo sapiens, SK-MEL-28, read-out: LC50 (molar concentration leading to 50% net cell death)): 13.2 µM | TGI (molar concentration giving total growth inhibition) ([15]; SK-MEL-28): 4.9 µM | GI50 ([16]; Homo sapiens, SK-MEL-5, read-out: Growth inhibition 50 (GI50)): 1.79 µM | CC50 ([16]; Homo sapiens, SK-MEL-5, read-out: LC50 (molar concentration leading to 50% net cell death)): 6.46 µM | TGI (molar concentration giving total growth inhibition) ([16]; SK-MEL-5): 3.39 µM | GI50 ([17]; Homo sapiens, UACC-257, read-out: Growth inhibition 50 (GI50)): 1.87 µM | CC50 ([17]; Homo sapiens, UACC-257, read-out: LC50 (molar concentration leading to 50% net cell death)): 26.9 µM | TGI (molar concentration giving total growth inhibition) ([17]; UACC-257): 6.61 µM | GI50 ([18]; Homo sapiens, UACC-62, read-out: Growth inhibition 50 (GI50)): 6.93 µM | CC50 ([18]; Homo sapiens, UACC-62, read-out: LC50 (molar concentration leading to 50% net cell death)): 45.7 µM | TGI (molar concentration giving total growth inhibition) ([18]; UACC-62): 19.95 µM

N-(3-(4-Benzylpiperazin-1-yl)propyl)-2-chloro-1,4,5,6-tetrahydrobenzo[6,7]cyclohepta[1,2-b]pyrrole-2-carboxamide [Compound 11]
GI50 [2]: 3.89 µM | GI50 [3]: 2.92 µM | GI50 ([4]; five doses (10^−4–10^−8 M)): 2.57 µM | GI50 [5]: 2.69 µM | GI50 [6]: 2.2 µM | GI50 (SR (leukemia cell line)): 2.49 µM | GI50 [7]: 1.65 µM | GI50 [8]: 1.73 µM | GI50 [9]: 3.37 µM | GI50 [10]: 3.57 µM | GI50 [19]: 2.69 µM | GI50 [20]: 1.96 µM | GI50 [21]: 2.72 µM | GI50 (MCF-7 (breast cancer)): 2.77 µM | GI50 (Colon Cancer panel): 2.81 µM | GI50 (Leukemia panel): 2.88 µM | GI50 (Melanoma panel): 2.34 µM | TGI (molar concentration giving total growth inhibition) [11]: 5.13 µM | GI50 ([11]; read-out: Growth inhibition 50 (GI50), five doses (10^−4–10^−8 M)): 2.16 µM | CC50 [11]: 15.8 µM | TGI (molar concentration giving total growth inhibition) ([12]; MALME-3M): 3.48 µM | GI50 ([12]; MALME-3M, five doses (10^−4–10^−8 M)): 1.9 µM | CC50 ([12]; MALME-3M): 6.46 µM | TGI (molar concentration giving total growth inhibition) (M14 (melanoma cell line); M14): 3.55 µM | GI50 (M14 (melanoma cell line); read-out: Growth inhibition 50 (GI50), M14, five doses (10^−4–10^−8 M)): 1.83 µM | CC50 (M14 (melanoma cell line); read-out: LC50 (molar concentration leading to 50% net cell death), M14): 6.92 µM | TGI (molar concentration giving total growth inhibition) ([13]; MDA-MB-435): 7.41 µM | GI50 ([13]; read-out: Growth inhibition 50 (GI50), MDA-MB-435, five doses (10^−4–10^−8 M)): 2.59 µM | CC50 ([13]; read-out: LC50 (molar concentration leading to 50% net cell death), MDA-MB-435): 30.2 µM | TGI (molar concentration giving total growth inhibition) ([14]; SK-MEL-2): 20.89 µM | GI50 ([14]; read-out: Growth inhibition 50 (GI50), SK-MEL-2, five doses (10^−4–10^−8 M)): 7.85 µM | CC50 ([14]; read-out: LC50 (molar concentration leading to 50% net cell death), SK-MEL-2): 47.9 µM | TGI (molar concentration giving total growth inhibition) ([15]; SK-MEL-28): 3.31 µM | GI50 ([15]; read-out: Growth inhibition 50 (GI50), SK-MEL-28, five doses (10^−4–10^−8 M)): 1.75 µM | CC50 ([15]; read-out: LC50 (molar concentration leading to 50% net cell death), SK-MEL-28): 6.16 µM | TGI (molar concentration giving total growth inhibition) ([16]; SK-MEL-5): 3.09 µM | GI50 ([16]; read-out: Growth inhibition 50 (GI50), SK-MEL-5, five doses (10^−4–10^−8 M)): 1.72 µM | CC50 ([16]; read-out: LC50 (molar concentration leading to 50% net cell death), SK-MEL-5): 5.62 µM | TGI (molar concentration giving total growth inhibition) ([17]; UACC-257): 3.39 µM | GI50 ([17]; read-out: Growth inhibition 50 (GI50), UACC-257, five doses (10^−4–10^−8 M)): 1.74 µM | CC50 ([17]; read-out: LC50 (molar concentration leading to 50% net cell death), UACC-257): 6.61 µM | TGI (molar concentration giving total growth inhibition) ([18]; UACC-62): 9.77 µM | GI50 ([18]; read-out: Growth inhibition 50 (GI50), UACC-62, five doses (10^−4–10^−8 M)): 2.55 µM | CC50 ([18]; read-out: LC50 (molar concentration leading to 50% net cell death), UACC-62): 31.6 µM
